The source of these data is patent US6143311A, “Iodopropargyl derivatives and antimicrobial agents comprising them as an active ingredient” (Nagase & Company, Ltd., priority 1997, dated 2000).

For one data set, the system named is Eschericia coli. Briefly: MIC against bacteria, Eschericia coli (nutrient broth, turbidity). As to conditions: 30° C., 24 hours; read-out: Antimicrobial activity (MIC), Bacteria B: Eschericia coli. The class given is cell-based. How it is done: (§1) The minimum inhibitory concentration (hereinafter abbreviated as MIC) against four bacteria (Enterobacter aerogenes, Eschericia coli, Pseudomonas aeruginosa and Bacillus subtillis) and four fungi (Aspergillusniger, Penicillium funiculosum, Gliocladium virens and Trichoderma viride) was measured and used as an indicator of the antimicrobial activity.
(§2) The MIC against bacteria was measured as follows. The test bacteria were cultivated by inoculating a nutrient broth with them and keeping the mixture at 37° C. for 6 hours. On the other hand, the test media were prepared by adding solutions (0.2 ml) of an iodopropargyl derivative in dimethylformamide (DMF) at varying concentrations to the nutrient broth (10 ml). The above bacterial culture (0.1 ml) was added to the test media and the mixtures were cultivated at 30° C. for 24 hours. Then, the presence or absence of microorganism growth was assessed by observing the turbidity of media, by which the MIC was determined.

The next data set deals with Gliocladium virens. The data set can be described thus: MIC against fungi, Gliocladium virens (PDA medium). The class given is cell-based. The following applies: Trichoderma virens, 336 h; 28° C., 2 weeks; read-out: Antimicrobial activity (MIC), Fungi G: Gliocladium virens. The protocol: as §1
(§3) The MIC against fungi was measured as follows. The test fungal spores were suspended in sterilized water supplemented with a wetting agent. On the other hand, test media were prepared by adding solutions (0.3 ml) of an iodopropargyl derivative in dimethylformamide (DMF) at varying concentrations to a potato-dextrose-agar (PDA) medium (15 ml). The above spore suspensions (1 ml) were spread over the test media and the media were cultivated at 28° C. for 2 weeks. The presence or absence of fungal growth on the media was then observed to determine the MIC.

In a further data set the test system is Bacillus subtillis. Briefly: MIC against bacteria, Bacillus subtillis (nutrient broth, turbidity). The class given is cell-based. The following applies: 30° C., 24 hours, read-out: Antimicrobial activity (MIC), Bacteria D: Bacillus subtillis. How it is done:
as §1, §2

Another data set deals with Trichoderma viride. Briefly: MIC against fungi, Trichoderma viride (PDA medium). The class given is cell-based. As to conditions: 336 h, 28° C., 2 weeks, read-out: Antimicrobial activity (MIC), Fungi H: Trichoderma viride. How it is done: as §1, §3
The test system of another data set is Pseudomonas aeruginosa. The data set can be described thus: MIC against bacteria, Pseudomonas aeruginosa (nutrient broth, turbidity). The following applies: 30° C., 24 hours, read-out: Antimicrobial activity (MIC), Bacteria C: Pseudomonas aeruginosa. The class given is cell-based. How it is done: as §1, §2
Data set [1] relates to four bacteria and four fungi. The data set can be described thus: Antimicrobial activity (MIC) against four bacteria and four fungi, overall. The format is cell-based. As to conditions: from results of Table 1. The protocol: as §1, §2, §3
The subject of another data set is Penicillium funiculosum. Briefly: MIC against fungi, Penicillium funiculosum (PDA medium). The format is cell-based. As to conditions: Talaromyces funiculosus, 336 h; 28° C., 2 weeks; read-out: Antimicrobial activity (MIC), Fungi F: Penicillium funiculosum. The protocol:
as §1, §3

A further data set concerns Aspergillus niger. Briefly: MIC against fungi, Aspergillus niger (PDA medium). The class given is cell-based. The following applies: 336 h, 28° C., 2 weeks, read-out: Antimicrobial activity (MIC), Fungi E: Aspergillus niger. The protocol:
as §1, §3

Another data set concerns Enterobacter aerogenes. Briefly: MIC against bacteria, Enterobacter aerogenes (nutrient broth, turbidity). The following applies: Klebsiella aerogenes; 30° C., 24 hours; read-out: Antimicrobial activity (MIC), Bacteria A: Enterobacter aerogenes. The class given is cell-based. How it is done:
as §1, §2

A further data set deals with human body. The following applies: background art; cited from earlier work.
Another data set has as its system mold. As to conditions: background art; cited from earlier work.

Values after ≈ are worked out from the molar mass of the structure shown.

Take `COc1ccc(OCOCC#CI)cc1` [Derivative III-a, 1-[[(3-Iodo-2-propynyl)oxy]methoxy]-4-methoxybenzene]: the MIC (in general, the least concentration at which growth counts as inhibited) in the data set with Eschericia coli was > 1000 µg/mL; with Gliocladium virens it was 2 to 4 µg/mL (≈ 6.29 to 12.6 µM); in the data set on Bacillus subtillis it was 10 to 20 µg/mL (≈ 31.4 to 62.9 µM); in the data set with Trichoderma viride it was 0.4 to 1 µg/mL (≈ 1.26 to 3.14 µM); in the data set with Pseudomonas aeruginosa it was > 1000 µg/mL; with Penicillium funiculosum, 2 to 4 µg/mL (≈ 6.29 to 12.6 µM). Moreover, the MIC is 0.4 to 1 µg/mL (≈ 1.26 to 3.14 µM) in the data set on Aspergillus niger and > 1000 µg/mL in the data set with Enterobacter aerogenes. In addition, the “antimicrobial activity compared with control 1-chloro-4-[[(3-iodo-2-propynyl)oxy]methoxy]benzene” value in data set [1] is “show an antimicrobial activity similar to that of 1-chloro-4-[[(3-iodo-2-propynyl)oxy]methoxy]benzene”. The “antimicrobial activity compared with the other derivatives” value in data set [1] is reported as “superior to the others in the antimicrobial activity”.

As for `CCOc1ccc(OCOCC#CI)cc1` [Derivative III-b, 1-Ethoxy-4-[[(3-iodo-2-propynyl)oxy]methoxy]benzene], the MIC with Eschericia coli is > 1000 µg/mL; with Gliocladium virens it was > 20 µg/mL; in the data set on Bacillus subtillis, 100 to 200 µg/mL (≈ 301 to 602 µM); in the data set with Trichoderma viride it was 4 to 10 µg/mL (≈ 12 to 30.1 µM); in the data set with Pseudomonas aeruginosa it was > 1000 µg/mL; in the data set with Penicillium funiculosum it was > 20 µg/mL. Besides, the MIC with Aspergillus niger was 4 to 10 µg/mL (≈ 12 to 30.1 µM); with Enterobacter aerogenes it was > 1000 µg/mL.

Consider `COc1ccccc1OCOCC#CI` [Derivative III-c, 1-[[(3-Iodo-2-propynyl)oxy]methoxy]-2-methoxybenzene], for which the MIC with Eschericia coli is > 1000 µg/mL; in the data set with Gliocladium virens it was > 20 µg/mL; in the data set on Bacillus subtillis, 200 to 400 µg/mL (≈ 629 to 1260 µM); in the data set with Trichoderma viride, 10 to 20 µg/mL (≈ 31.4 to 62.9 µM); in the data set on Pseudomonas aeruginosa, > 1000 µg/mL; in the data set with Penicillium funiculosum, > 20 µg/mL. The MIC is 10 to 20 µg/mL (≈ 31.4 to 62.9 µM) with Aspergillus niger and > 1000 µg/mL with Enterobacter aerogenes.

With `CCOc1ccccc1OCOCC#CI` [Derivative III-d, 1-Ethoxy-2-[[(3-iodo-2-propynyl)oxy]methoxy]benzene], the MIC is > 1000 µg/mL with Eschericia coli; 4 to 10 µg/mL (≈ 12 to 30.1 µM) in the data set with Gliocladium virens; 20 to 40 µg/mL (≈ 60.2 to 120 µM) in the data set with Bacillus subtillis; 1 to 2 µg/mL (≈ 3.01 to 6.02 µM) in the data set on Trichoderma viride; > 1000 µg/mL with Pseudomonas aeruginosa; 4 to 10 µg/mL (≈ 12 to 30.1 µM) in the data set on Penicillium funiculosum. The MIC was 1 to 2 µg/mL (≈ 3.01 to 6.02 µM) in the data set with Aspergillus niger and > 1000 µg/mL in the data set with Enterobacter aerogenes.

With `COc1ccc(OC(C)OCC#CI)cc1` (stereo not drawn) [Derivative III-e, 1-[1-[(3-Iodo-2-propynyl)oxy]ethoxy]-4-methoxybenzene], the MIC is > 1000 µg/mL in the data set on Eschericia coli; 4 to 10 µg/mL (≈ 12 to 30.1 µM) in the data set on Gliocladium virens; 20 to 40 µg/mL (≈ 60.2 to 120 µM) with Bacillus subtillis; 1 to 2 µg/mL (≈ 3.01 to 6.02 µM) in the data set with Trichoderma viride; > 1000 µg/mL in the data set with Pseudomonas aeruginosa; 2 to 4 µg/mL (≈ 6.02 to 12 µM) in the data set with Penicillium funiculosum. In addition, the MIC is 0.4 to 1 µg/mL (≈ 1.2 to 3.01 µM) in the data set with Aspergillus niger and > 1000 µg/mL in the data set on Enterobacter aerogenes. Further, the “antimicrobial activity compared with the other derivatives” value in data set [1] was “superior to the others in the antimicrobial activity”.

On to `CCOc1ccc(OC(C)OCC#CI)cc1` (stereo not drawn) [Derivative III-f, 1-Ethoxy-4-[1-[(3-Iodo-2-propynyl)oxy]ethoxy]benzene], for which the MIC is 400 to 1000 µg/mL (≈ 1160 to 2890 µM) with Eschericia coli; 4 to 10 µg/mL (≈ 11.6 to 28.9 µM) with Gliocladium virens; 10 to 20 µg/mL (≈ 28.9 to 57.8 µM) with Bacillus subtillis; 1 to 2 µg/mL (≈ 2.89 to 5.78 µM) in the data set with Trichoderma viride; > 1000 µg/mL in the data set with Pseudomonas aeruginosa; 4 to 10 µg/mL (≈ 11.6 to 28.9 µM) with Penicillium funiculosum. Also, the MIC with Aspergillus niger is 1 to 2 µg/mL (≈ 2.89 to 5.78 µM); in the data set on Enterobacter aerogenes it was > 1000 µg/mL.

`COc1ccccc1OC(C)OCC#CI` (stereo not drawn) [Derivative III-g, 1-[1-[(3-Iodo-2-propynyl)oxy]ethoxy]-2-methoxybenzene]: the MIC in the data set on Eschericia coli was > 1000 µg/mL; in the data set on Gliocladium virens, 4 to 10 µg/mL (≈ 12 to 30.1 µM); with Bacillus subtillis, 20 to 40 µg/mL (≈ 60.2 to 120 µM); with Trichoderma viride it was 2 to 4 µg/mL (≈ 6.02 to 12 µM); in the data set with Pseudomonas aeruginosa, > 1000 µg/mL; in the data set on Penicillium funiculosum it was 2 to 4 µg/mL (≈ 6.02 to 12 µM). The MIC is 1 to 2 µg/mL (≈ 3.01 to 6.02 µM) in the data set on Aspergillus niger and > 1000 µg/mL with Enterobacter aerogenes.

In the case of `CCOc1ccccc1OC(C)OCC#CI` (stereo not drawn) [Derivative III-h, 1-Ethoxy-2-[1-[(3-iodo-2-propynyl)oxy]ethoxy]benzene], the MIC in the data set on Eschericia coli was > 1000 µg/mL; in the data set on Gliocladium virens, 4 to 10 µg/mL (≈ 11.6 to 28.9 µM); in the data set on Bacillus subtillis, 20 to 40 µg/mL (≈ 57.8 to 116 µM); with Trichoderma viride it was 2 to 4 µg/mL (≈ 5.78 to 11.6 µM); in the data set with Pseudomonas aeruginosa, > 1000 µg/mL; in the data set with Penicillium funiculosum, 2 to 4 µg/mL (≈ 5.78 to 11.6 µM). Further, the MIC was 2 to 4 µg/mL (≈ 5.78 to 11.6 µM) in the data set on Aspergillus niger and > 1000 µg/mL in the data set with Enterobacter aerogenes.

For `N#Cc1ccc(OCOCC#CI)cc1` [Derivative III-i, 1-Cyano-4-[[(3-iodo-2-propynyl)oxy]methoxy]benzene], the MIC in the data set with Eschericia coli is > 1000 µg/mL; in the data set with Gliocladium virens, 0.4 to 1 µg/mL (≈ 1.28 to 3.19 µM); with Bacillus subtillis, 20 to 40 µg/mL (≈ 63.9 to 128 µM); in the data set on Trichoderma viride it was 0.4 to 1 µg/mL (≈ 1.28 to 3.19 µM); with Pseudomonas aeruginosa, > 1000 µg/mL; in the data set on Penicillium funiculosum, 0.4 to 1 µg/mL (≈ 1.28 to 3.19 µM). Besides, the MIC in the data set with Aspergillus niger was 1 to 2 µg/mL (≈ 3.19 to 6.39 µM); in the data set with Enterobacter aerogenes it was > 1000 µg/mL. Further, the “antimicrobial activity compared with control 1-chloro-4-[[(3-iodo-2-propynyl)oxy]methoxy]benzene” value in [1] was “show an antimicrobial activity similar to that of 1-chloro-4-[[(3-iodo-2-propynyl)oxy]methoxy]benzene”. Further, the “antimicrobial activity compared with the other derivatives” value in data set [1] is reported as “superior to the others in the antimicrobial activity”.

For `Clc1ccc(OCOCC#CI)cc1` [IF-1000, 1-Chloro-4-[[(3-iodo-2-propynyl)oxy]methoxy]benzene, reference compound], the MIC is 100 to 200 µg/mL (≈ 310 to 620 µM) in the data set with Eschericia coli; 1 to 2 µg/mL (≈ 3.1 to 6.2 µM) in the data set on Gliocladium virens; 10 to 20 µg/mL (≈ 31 to 62 µM) in the data set with Bacillus subtillis; 1 to 2 µg/mL (≈ 3.1 to 6.2 µM) with Trichoderma viride; > 1000 µg/mL with Pseudomonas aeruginosa; 0.4 to 1 µg/mL (≈ 1.24 to 3.1 µM) in the data set with Penicillium funiculosum. In addition, the MIC was 0.4 to 1 µg/mL (≈ 1.24 to 3.1 µM) in the data set on Aspergillus niger and > 1000 µg/mL with Enterobacter aerogenes. The “toxicity against the human body” value in the data set on human body is listed as “low toxicity against the human body”. Also, the “antimicrobial activity against mold” value in the data set on mold is “particularly high antimicrobial activity against mold”.
